pIC50: −log10 of the molar value.
Assays:
[1] = target: T1, PI3K alpha (Homo sapiens, UniProt P42336); test: Enzymatic PI3K alpha isoform inhibition (lipid kinase activity, Kinase-Glo); format: biochemical; conditions: enzymatic assay
T1 construct: for the p110-a subunit (with a deletion of the first 20 amino acids) are generated; His tag (C); made in house; host or cells: baculovirus BV1075; Tn5 (Trichoplusia ni) or TiniPro insect cells
Experimental: (§1) The components of the assay are added per well as follows:
(§2) IC50 is determined by a four parameter curve fitting routine that comes along with “excel fit”.
(§3) Yet alternatively, for an ATP depletion assay, compounds of the formula I to be tested are dissolved in DMSO and directly distributed into a white 384-well plate at 0.5 μl per well. To start the reaction, 10 μl of 10 nM PI3 kinase and 5 μg/ml 1-alpha-phosphatidylinositol (PI) are added into each well followed by 10 μl of 2 μM ATP. The reaction is performed until approx 50% of the ATP is depleted, and then stopped by the addition of 20 μl of Kinase-Glo solution (Promega Corp., Madison, Wis., USA). The stopped reaction is incubated for 5 minutes and the remaining ATP is then detected via luminescence. IC50 values are then determined.

[2] = target: T2, PI3K delta (Homo sapiens, UniProt O00329); test: Enzymatic PI3K delta isoform inhibition (lipid kinase activity, Kinase-Glo); format: biochemical; conditions: enzymatic assay
T2 construct: for the full-length p110-d subunit are generated and fused by overlapping PCR; His tag (C); made in house; host or cells: baculovirus BV1060; Tn5 (Trichoplusia ni) or TiniPro insect cells
T2 sequence (O00329 with tags, fused parts or gaps limits assumed, species assumed): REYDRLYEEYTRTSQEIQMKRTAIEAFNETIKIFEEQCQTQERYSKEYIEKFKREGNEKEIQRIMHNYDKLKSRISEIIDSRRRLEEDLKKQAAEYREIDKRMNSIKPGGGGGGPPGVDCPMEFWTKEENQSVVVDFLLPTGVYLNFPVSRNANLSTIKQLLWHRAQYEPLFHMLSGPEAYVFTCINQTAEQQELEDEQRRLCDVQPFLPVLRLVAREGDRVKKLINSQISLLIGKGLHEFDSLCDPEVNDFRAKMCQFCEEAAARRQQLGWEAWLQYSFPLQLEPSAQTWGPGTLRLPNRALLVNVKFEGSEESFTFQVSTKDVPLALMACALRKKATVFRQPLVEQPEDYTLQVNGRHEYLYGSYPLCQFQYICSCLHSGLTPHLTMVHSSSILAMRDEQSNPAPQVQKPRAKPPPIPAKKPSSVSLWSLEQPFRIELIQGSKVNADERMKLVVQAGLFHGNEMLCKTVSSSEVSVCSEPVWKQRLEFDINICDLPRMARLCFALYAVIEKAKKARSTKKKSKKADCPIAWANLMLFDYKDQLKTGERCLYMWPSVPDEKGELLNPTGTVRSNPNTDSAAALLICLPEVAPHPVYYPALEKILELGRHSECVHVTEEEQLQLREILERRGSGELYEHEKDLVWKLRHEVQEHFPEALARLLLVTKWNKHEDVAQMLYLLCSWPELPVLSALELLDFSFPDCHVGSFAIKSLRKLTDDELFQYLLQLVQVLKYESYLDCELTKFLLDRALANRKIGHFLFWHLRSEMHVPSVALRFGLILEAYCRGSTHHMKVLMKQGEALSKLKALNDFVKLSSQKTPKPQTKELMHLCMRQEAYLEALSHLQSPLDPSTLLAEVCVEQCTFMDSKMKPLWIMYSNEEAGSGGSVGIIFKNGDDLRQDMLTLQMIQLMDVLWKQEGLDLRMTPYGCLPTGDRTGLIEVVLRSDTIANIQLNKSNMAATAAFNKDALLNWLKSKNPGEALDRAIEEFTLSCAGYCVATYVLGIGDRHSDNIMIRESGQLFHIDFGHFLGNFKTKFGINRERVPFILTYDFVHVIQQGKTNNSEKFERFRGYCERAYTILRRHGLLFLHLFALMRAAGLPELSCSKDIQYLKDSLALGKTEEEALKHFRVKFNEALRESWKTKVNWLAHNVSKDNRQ
Experimental: as §1, §2, §3

T1 sequence (P42336 with tags, fused parts or gaps limits assumed, species assumed): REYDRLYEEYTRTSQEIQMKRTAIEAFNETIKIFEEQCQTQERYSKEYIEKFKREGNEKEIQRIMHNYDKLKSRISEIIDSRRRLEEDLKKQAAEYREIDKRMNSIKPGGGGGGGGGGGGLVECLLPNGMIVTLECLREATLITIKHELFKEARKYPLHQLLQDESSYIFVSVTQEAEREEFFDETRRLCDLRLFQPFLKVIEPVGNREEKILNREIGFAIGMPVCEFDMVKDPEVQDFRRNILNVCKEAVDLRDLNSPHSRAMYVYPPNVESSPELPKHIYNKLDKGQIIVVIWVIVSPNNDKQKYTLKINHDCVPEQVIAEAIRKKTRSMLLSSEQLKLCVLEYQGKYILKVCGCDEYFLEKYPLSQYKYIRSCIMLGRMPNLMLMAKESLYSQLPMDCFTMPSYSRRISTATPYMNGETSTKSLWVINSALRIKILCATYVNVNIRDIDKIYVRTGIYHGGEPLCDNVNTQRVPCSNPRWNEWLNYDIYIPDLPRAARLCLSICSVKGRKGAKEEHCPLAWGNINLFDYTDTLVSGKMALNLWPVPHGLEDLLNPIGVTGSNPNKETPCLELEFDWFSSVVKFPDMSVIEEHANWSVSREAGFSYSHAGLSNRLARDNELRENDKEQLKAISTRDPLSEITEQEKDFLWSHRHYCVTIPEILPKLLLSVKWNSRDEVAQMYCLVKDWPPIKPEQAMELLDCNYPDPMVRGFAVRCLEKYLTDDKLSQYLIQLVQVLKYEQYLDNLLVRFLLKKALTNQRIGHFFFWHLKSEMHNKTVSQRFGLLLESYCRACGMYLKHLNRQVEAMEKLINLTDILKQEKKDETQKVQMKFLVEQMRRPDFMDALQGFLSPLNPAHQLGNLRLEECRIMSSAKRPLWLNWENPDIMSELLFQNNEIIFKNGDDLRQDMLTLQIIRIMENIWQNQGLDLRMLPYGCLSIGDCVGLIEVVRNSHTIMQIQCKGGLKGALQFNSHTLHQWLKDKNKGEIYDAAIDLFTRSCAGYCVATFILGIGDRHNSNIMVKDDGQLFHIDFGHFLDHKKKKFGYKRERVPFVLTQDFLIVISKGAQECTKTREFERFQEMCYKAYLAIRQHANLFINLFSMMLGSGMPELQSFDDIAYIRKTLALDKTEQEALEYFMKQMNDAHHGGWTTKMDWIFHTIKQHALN

Structure (SMILES) | pIC50 [1] | pIC50 [2]
COc1ncc(-c2ccc3ncnc(-c4cccc(C(=O)N5CCN(C(C)=O)CC5)c4)c3c2)cn1 [Example 4] | 5.94 | 8.05
CCOc1ncc(-c2ccc3ncnc(-c4cccc(C(=O)N5CCN(C(C)=O)CC5)c4)c3c2)cn1 [Example 5] | 5.88 | 8.07
CC(=O)N1CCN(C(=O)c2cccc(-c3ncnc4ccc(-c5cnc(N)nc5)cc34)c2)CC1 [Example 8] | 6.57 | 8.02
CC(=O)N1CCN(C(=O)c2cccc(-c3ncnc4ccc(-c5cc(C#N)c(N)c(C(F)(F)F)c5)cc34)c2)CC1 [Example 10] | < 5.04 | 7.57
CN1CCN(C(=O)c2cccc(-c3ncnc4ccc(-c5cnc(N(C)C)nc5)cc34)c2)CC1 [Example 11] | 5.97 | 7.55
CN1CCN(C(=O)c2cccc(-c3ncnc4ccc(-c5ccc(OC(F)F)nc5)cc34)c2)CC1 [Example 13] | 5.88 | 7.47
CN1CCN(C(=O)c2cccc(-c3ncnc4ccc(-c5ccc(N6CCCC6)nc5)cc34)c2)CC1 [Example 15] | 5.91 | 7.77
CCOc1ccc(-c2ccc3ncnc(-c4cccc(C(=O)N5CCN(C)CC5)c4)c3c2)cn1 [Example 16] | 6.16 | 7.90
CN1CCN(C(=O)c2cccc(-c3ncnc4ccc(-c5ccc(N(C)C)nc5)cc34)c2)CC1 [Example 17] | 6.45 | 8.20
CN1CCN(C(=O)c2cccc(-c3ncnc4ccc(-c5ccc(N6CCNCC6)nc5)cc34)c2)CC1 [Example 18] | 5.89 | 7.38
COc1ccc(-c2ccc3ncnc(-c4cccc(C(=O)N5CCN(C)CC5)c4)c3c2)cc1S(=O)(=O)N1CCOCC1 [Example 21] | 5.64 | 7.84
CCN(CC)S(=O)(=O)c1cc(-c2ccc3ncnc(-c4cccc(C(=O)N5CCN(C)CC5)c4)c3c2)ccc1OC [Example 23] | 6.03 | 7.90
CN1CCN(C(=O)c2cccc(-c3ncnc4ccc(-c5cncc(S(C)(=O)=O)c5)cc34)c2)CC1 [Example 24] | 6.40 | 7.82
CN1CCN(C(=O)c2cccc(-c3ncnc4ccc(-c5ccc(N)nc5)cc34)c2)CC1 [Example 25] | 6.74 | 8.15
COc1ncc(-c2ccc3ncnc(-c4cccc(C(=O)N5CCN(C)C(C)(C)C5)c4)c3c2)cn1 [Example 26] | 6.21 | 7.75
CCOc1ccc(-c2ccc3ncnc(-c4cccc(C(=O)N5CCN(C)C(C)(C)C5)c4)c3c2)cn1 [Example 27] | 6.39 | 7.73
CC1(C)CN(C(=O)c2cccc(-c3ncnc4ccc(-c5ccc(N)nc5)cc34)c2)CCO1 [Example 32] | 6.76 | 8.15

Structure (SMILES) | pIC50 [1] | pIC50 [2]
COc1ncc(-c2ccc3ncnc(-c4cccc(C(=O)N5CCOC(C)(C)C5)c4)c3c2)cn1 [Example 33] | 6.19 | 7.92
COc1ccc(-c2ccc3ncnc(-c4cccc(C(=O)N5CCN(C(C)=O)C(C)(C)C5)c4)c3c2)cn1 [Example 36, 1-(4-{3-[6-(6-Methoxy-pyridin-3-yl)-quinazolin-4-yl]-benzoyl}-2,2-dimethyl-piperazin-1-yl)-ethanone] | 6.66 | 8.35
COc1ncc(-c2ccc3ncnc(-c4cccc(C(=O)N5CCN(C(C)=O)C(C)(C)C5)c4)c3c2)cc1C#N [Example 37] | 6.37 | 8.40
CNc1ncc(-c2ccc3ncnc(-c4cccc(C(=O)N5CCN(C)CC5)c4)c3c2)cc1C [Example 40, {3-[6-(5-Methyl-6-methylamino-pyridin-3-yl)-quinazolin-4-yl]-phenyl}-(4-methyl-piperazin-1-yl)-methanone] | 6.57 | 8.52
CNc1ccc(-c2ccc3ncnc(-c4cccc(C(=O)N5CCN(C)CC5)c4)c3c2)cn1 [Example 41] | 6.15 | 7.69
Cc1ccc(-c2ccc3ncnc(-c4cccc(C(=O)N5CCN(C)CC5)c4)c3c2)cc1S(C)(=O)=O [Example 43] | 6.43 | 7.96
COc1ccc(-c2ccc3ncnc(-c4cccc(C(=O)N5CCN(C)CC5)c4)c3c2)cc1C#N [Example 45] | 5.92 | 7.44
CN1CCN(C(=O)c2cccc(-c3ncnc4ccc(-c5cc(NS(C)(=O)=O)cc(C(F)(F)F)c5)cc34)c2)CC1 [Example 47] | < 5.04 | 7.57
COc1ccc(-c2ccc3ncnc(-c4cccc(C(=O)N5CCN(C)CC5)c4)c3c2)cc1C(=O)N(C)C [Example 49, 2-Methoxy-N,N-dimethyl-5-{4-[3-(4-methyl-piperazine-1-carbonyl)-phenyl]-quinazolin-6-yl}-benzamide] | 5.05 | 7.45
CC(=O)N1CCN(C(=O)c2cncc(-c3ncnc4ccc(-c5cncc(C(F)(F)F)c5)cc34)c2)CC1 [Example 50, 1-(4-{5-[6-(5-Trifluoromethyl-pyridin-3-yl)-quinazolin-4-yl]-pyridine-3-carbonyl}-piperazin-1-yl)-ethanone] | 6.50 | 7.98
COc1ncc(-c2ccc3ncnc(-c4cncc(C(=O)N5CCN(C(C)=O)CC5)c4)c3c2)cc1F [Example 51] | 6.93 | 8.46
COc1ccc(-c2ccc3ncnc(-c4cncc(C(=O)N5CCN(C(C)=O)CC5)c4)c3c2)cn1 [Example 52] | 6.72 | 8.12
COc1ncc(-c2ccc3ncnc(-c4cncc(C(=O)N5CCN(C(C)=O)CC5)c4)c3c2)cc1C#N [Example 53] | 6.33 | 8.15
COc1ncc(-c2ccc3ncnc(-c4cncc(C(=O)N5CCN(C)CC5)c4)c3c2)cc1F [Example 55] | 6.72 | 8.03
COc1ncc(-c2ccc3ncnc(-c4cncc(C(=O)N5CCN(C)CC5)c4)c3c2)cc1C#N [Example 56] | 6.27 | 7.96
COc1ncc(-c2ccc3ncnc(-c4cncc(C(=O)N5CCN(C)CC5)c4)c3c2)cn1 [Example 59] | 5.77 | 7.50
CN1CCN(C(=O)c2cncc(-c3ncnc4ccc(-c5cnc(N)nc5)cc34)c2)CC1 [Example 60] | 6.18 | 7.71

Continued, values first:

pIC50 [1] | pIC50 [2] | Structure (SMILES)
7.21 | > 8.52 | COc1ncc(-c2ccc3ncnc(-c4cccc(C(=O)N5CCN(C(C)=O)CC5)c4)c3c2)cc1F [Example 3]
5.61 | 7.62 | COc1ccc(-c2ccc3ncnc(-c4cccc(C(=O)N5CCN(C)CC5)c4)c3c2)cc1C(F)(F)F [Example 20]
6.38 | 8.05 | COc1ncc(-c2ccc3ncnc(-c4cccc(C(=O)N5CCS(=O)(=O)CC5)c4)c3c2)cc1C#N [Example 28]
7.12 | 8.52 | COc1ncc(-c2ccc3ncnc(-c4cccc(C(=O)N5C[C@@H]6C[C@H]5CN6C)c4)c3c2)cc1C(F)(F)F [Example 29]
6.41 | 8.18 | COc1ncc(-c2ccc3ncnc(-c4cccc(C(=O)N5CCOCC5)c4)c3c2)cc1C#N [Example 30]
6.20 | 8.22 | COc1ncc(-c2ccc3ncnc(-c4cccc(C(=O)N5CCOC(C)(C)C5)c4)c3c2)cc1C#N [Example 31]
6.31 | 7.65 | COc1ncc(-c2ccc3ncnc(-c4cccc(C(=O)N5CCN[C@H](C)C5)c4)c3c2)cc1C#N [Example 34, 2-Methoxy-5-{4-[3-((R)-3-methyl-piperazine-1-carbonyl)-phenyl]-quinazolin-6-yl}-nicotinonitrile]
6.58 | 8.15 | COc1ncc(-c2ccc3ncnc(-c4cccc(C(=O)N5CCNCC5)c4)c3c2)cc1C#N [Example 35]
6.43 | 8.15 | COc1ccc(-c2ccc3ncnc(-c4cccc(C(=O)N5CC6CC5CN6)c4)c3c2)cn1 (stereo not shown) [Example 38, (2,5-Diaza-bicyclo[2.2.1]hept-2-yl)-{3-[6-(6-methoxy-pyridin-3-yl)-quinazolin-4-yl]-phenyl}-methanone]
6.11 | 7.94 | COc1ccc(-c2ccc3ncnc(-c4cccc(C(=O)N5C[C@@H]6C[C@H]5CN6)c4)c3c2)cc1C(F)(F)F [Example 39]
6.82 | 8.22 | CCOc1ncc(-c2ccc3ncnc(-c4cccc(C(=O)N5CCN(C)CC5)c4)c3c2)cc1C(F)(F)F [Example 42, {3-[6-(6-Ethoxy-5-trifluoromethyl-pyridin-3-yl)-quinazolin-4-yl]-phenyl}-(4-methyl-piperazin-1-yl)-methanone]
5.28 | 7.63 | CN1CCN(C(=O)c2cccc(-c3ncnc4ccc(-c5ccc(S(N)(=O)=O)c(C(F)(F)F)c5)cc34)c2)CC1 [Example 46]
5.42 | 7.32 | CN1CCN(C(=O)c2cccc(-c3ncnc4ccc(-c5ccc(NS(C)(=O)=O)c(C(F)(F)F)c5)cc34)c2)CC1 [Example 48]
7.16 | 8.52 | COc1ncc(-c2ccc3ncnc(-c4cncc(C(=O)N5CCN(C(C)=O)CC5)c4)c3c2)cc1C(F)(F)F [Example 54]
6.19 | 8.26 | COc1ccc(-c2ccc3ncnc(-c4cncc(C(=O)N5CCN(C)CC5)c4)c3c2)cc1C(F)(F)F [Example 58]
6.41 | 8.52 | COc1ncc(-c2ccc3ncnc(-c4cncc(C(=O)N5CCOC(C)(C)C5)c4)c3c2)cc1C(F)(F)F [Example 61]

From patent publication US20140249139A1, “Quinazoline Derivatives” (NOVARTIS AG, priority 2011, published 2014)
